According to publication PMC7076388 (Pharmaceutics, 2020):
“Also recorded” adds a separate entry of the source.

Legend:
[1] = test system: RAW 264.7 cells; design: method as in PMID 30987203; conditions: up to 100 µM, 24 h, MTT; cited from earlier work
[2] = target: T1, LOX from glycine max (soybean) (Glycine max, UniProt P08170); design: method as in PMID 30987203; conditions: 100 µM; cited from earlier work
T1 construct: purchased Sigma-Aldrich
T1 sequence (P08170 1-839): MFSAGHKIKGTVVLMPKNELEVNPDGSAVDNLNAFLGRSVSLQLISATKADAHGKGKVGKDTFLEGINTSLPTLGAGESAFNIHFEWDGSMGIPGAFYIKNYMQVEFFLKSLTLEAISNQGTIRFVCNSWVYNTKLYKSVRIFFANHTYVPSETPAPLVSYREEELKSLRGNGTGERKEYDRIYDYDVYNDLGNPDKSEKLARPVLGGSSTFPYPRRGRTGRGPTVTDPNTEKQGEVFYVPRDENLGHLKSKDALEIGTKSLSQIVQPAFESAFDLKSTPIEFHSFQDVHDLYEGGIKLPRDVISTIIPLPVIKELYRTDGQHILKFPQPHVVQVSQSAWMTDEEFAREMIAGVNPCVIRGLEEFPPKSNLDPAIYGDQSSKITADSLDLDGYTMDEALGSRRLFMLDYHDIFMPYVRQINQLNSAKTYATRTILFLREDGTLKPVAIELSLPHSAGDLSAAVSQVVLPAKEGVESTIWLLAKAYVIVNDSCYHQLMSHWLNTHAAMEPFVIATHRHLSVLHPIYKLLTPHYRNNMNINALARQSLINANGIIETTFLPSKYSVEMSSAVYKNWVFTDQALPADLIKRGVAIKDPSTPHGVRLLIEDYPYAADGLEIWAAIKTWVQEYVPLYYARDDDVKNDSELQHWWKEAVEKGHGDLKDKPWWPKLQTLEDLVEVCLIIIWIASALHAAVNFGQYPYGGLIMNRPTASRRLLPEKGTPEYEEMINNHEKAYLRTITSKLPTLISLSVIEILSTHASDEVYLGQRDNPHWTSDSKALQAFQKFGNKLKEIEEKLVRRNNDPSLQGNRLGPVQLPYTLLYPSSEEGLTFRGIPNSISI

[3] = target: T2, COX-1 (Ovis aries, UniProt P05979); design: method as in PMID 30987203; conditions: 25 µM; cited from earlier work
T2 construct: purchased Cayman Chemical
T2 sequence (P05979 25-600): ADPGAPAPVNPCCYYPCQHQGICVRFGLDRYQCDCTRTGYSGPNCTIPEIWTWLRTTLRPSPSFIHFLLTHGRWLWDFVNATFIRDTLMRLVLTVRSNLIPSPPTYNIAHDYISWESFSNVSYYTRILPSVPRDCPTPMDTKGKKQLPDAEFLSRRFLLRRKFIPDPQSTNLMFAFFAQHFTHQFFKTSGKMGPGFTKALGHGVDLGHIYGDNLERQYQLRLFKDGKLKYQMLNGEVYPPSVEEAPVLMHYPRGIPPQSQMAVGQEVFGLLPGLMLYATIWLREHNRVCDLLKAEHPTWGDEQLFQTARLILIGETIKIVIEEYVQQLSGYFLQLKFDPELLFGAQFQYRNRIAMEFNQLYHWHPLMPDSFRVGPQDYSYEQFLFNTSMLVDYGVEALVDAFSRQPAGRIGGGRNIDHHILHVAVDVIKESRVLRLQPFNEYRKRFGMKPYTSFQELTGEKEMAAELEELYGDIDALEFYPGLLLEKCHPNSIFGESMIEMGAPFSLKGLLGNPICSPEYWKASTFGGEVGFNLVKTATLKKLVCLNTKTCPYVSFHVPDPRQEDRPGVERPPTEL

[4] = target: T3, COX-2 (Homo sapiens, UniProt P35354); design: method as in PMID 30987203; conditions: 25 µM; low selectivity towards COX-2; cited from earlier work
T3 construct: purchased Cayman Chemical
T3 sequence (P35354 18-604): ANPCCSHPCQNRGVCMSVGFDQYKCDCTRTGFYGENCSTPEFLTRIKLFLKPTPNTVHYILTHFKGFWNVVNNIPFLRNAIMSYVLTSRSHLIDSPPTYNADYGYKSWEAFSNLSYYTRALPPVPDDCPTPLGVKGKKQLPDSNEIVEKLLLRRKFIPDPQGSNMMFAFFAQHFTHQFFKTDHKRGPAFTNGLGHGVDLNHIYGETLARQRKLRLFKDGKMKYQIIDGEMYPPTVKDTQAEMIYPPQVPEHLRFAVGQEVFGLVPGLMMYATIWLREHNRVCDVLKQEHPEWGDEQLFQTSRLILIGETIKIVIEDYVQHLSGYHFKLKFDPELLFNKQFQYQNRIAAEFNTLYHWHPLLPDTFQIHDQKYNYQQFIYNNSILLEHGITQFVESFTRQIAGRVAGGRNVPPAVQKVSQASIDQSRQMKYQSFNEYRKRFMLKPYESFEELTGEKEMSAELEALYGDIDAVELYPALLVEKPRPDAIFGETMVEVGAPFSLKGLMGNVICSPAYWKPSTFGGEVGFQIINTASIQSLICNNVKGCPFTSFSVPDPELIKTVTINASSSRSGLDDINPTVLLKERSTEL

[5] = target: 20S proteasome isolated from erythrocytes (Homo sapiens, UniProt P28074); test: 20S proteasome inhibition (chymotrypsin-like activity); assay type: biochemical; design: purified 20S proteasome isolated from erythrocytes (Enzo Life Sciences); purchased Enzo Life Sciences; host or cells: erythrocytes
Experimental: Proteasome activity was measured by adapting a method described by Silva et al.. The substrate used to study chymotrypsin-like enzyme activity was Suc-Leu-Leu-Val-Tyr-AMC and the enzyme used was purified 20S proteasome isolated from erythrocytes (Enzo Life Sciences). […] The plate was incubated at 37 °C in the dark for 2 h. […] Lactacystin was used as positive control.

- remaining activity at 100 µM ([5]; 100 µM, read-out: 20S proteasome enzyme activity remaining): 11%
- IC50 ([5]; dose-response assay): 30.6 µM
Structure (SMILES): COc1ccc2cc(C(C)C(=O)NC(Cc3ccc(O)cc3)C(=O)NC(=Cc3ccccc3)C(=O)O)ccc2c1 [Compound 1, Npx-L-Tyr-Z-ΔPhe-OH]
- cytotoxic effect on RAW 264.7 viability [1]: did not show any statistically significant cytotoxic effects
- LOX inhibition at single concentration [2]: significantly inhibit the LOX enzyme to a similar level to naproxen; also recorded: high levels of lipoxygenase (LOX) inhibition
- COX inhibition level (COX-1) [3]: modest levels of COX inhibition
- COX inhibition level (COX-2) [4]: modest levels of COX inhibition
